According to patent US20230250066A1, “HERBICIDAL CINNOLINE DERIVATIVES” (SYNGENTA CROP PROTECTION AG, priority 2020, published 2023):

Legend:
Assay type in all cases: in vivo
[1] = tested on: Amaranthus retoflexus (AMARE); test: Pre-emergence herbicidal test; settings: 1000 g/ha, evaluated after 13 days
Setaria faberi (SETFA) [2] = test: Pre-emergence herbicidal test; settings: 1000 g/ha, evaluated after 13 days
[3] = tested on: Echinochloa crus-galli (ECHCG); test: Pre-emergence herbicidal test; settings: 1000 g/ha, evaluated after 13 days
[4] = tested on: Ipomoea hederacea (IPOHE); test: Pre-emergence herbicidal test; settings: 1000 g/ha, evaluated after 13 days
[5] = tested on: Abutilon theophrasti (ABUTH); test: Pre-emergence herbicidal test; settings: 1000 g/ha, evaluated after 13 days
Zea mays (ZEAMX) [6] = test: Pre-emergence herbicidal test; settings: 1000 g/ha, evaluated after 13 days
[7] = tested on: Abutilon theophrasti (ABUTH); test: Post-emergence herbicidal test; settings: 1000 g/ha unless otherwise stated, evaluated after 13 days
Procedure: (§1) Seeds of a variety of test species are sown in standard soil in pots (Amaranthus retoflexus (AMARE), Solanum nigrum (SOLNI), Setaria faberi (SETFA), Lolium perenne (LOLPE), Echinochloa crus-galli (ECHCG), Ipomoea hederacea (IPOHE), Abutilon theophrasti (ABUTH), Zea mays (ZEAMX)). After 8 days cultivation under controlled conditions in a glasshouse (at 24° C./16° C., day/night; 14 hours light; 65% humidity), the plants are sprayed with an aqueous spray solution derived from the formulation of the technical active ingredient in acetone/water (50:50) solution containing 0.5% Tween 20 (polyoxyethelyene sorbitan monolaurate, CAS RN 9005-64-5). Compounds are applied at 1000 g/ha unless otherwise stated. The test plants are then grown in a glasshouse under controlled conditions in a glasshouse (at 24° C./16° C., day/night; 14 hours light; 65% humidity) and watered twice daily. After 13 days the test is evaluated for the percentage damage caused to the plant. The biological activities are shown in the following table on a five-point scale (5=81-100%; 4=61-80%; 3=41-60%; 2=21-40%; 1=10-20%; 0=0%;−=not tested).

[8] = tested on: Amaranthus retoflexus (AMARE); test: Post-emergence herbicidal test; settings: 1000 g/ha unless otherwise stated, evaluated after 13 days
Procedure: as §1

[9] = tested on: Echinochloa crus-galli (ECHCG); test: Post-emergence herbicidal test; settings: 1000 g/ha unless otherwise stated, evaluated after 13 days
Procedure: as §1

[10] = tested on: Ipomoea hederacea (IPOHE); test: Post-emergence herbicidal test; settings: 1000 g/ha unless otherwise stated, evaluated after 13 days
Procedure: as §1

Setaria faberi (SETFA) [11] = test: Post-emergence herbicidal test; settings: 1000 g/ha unless otherwise stated, evaluated after 13 days
Procedure: as §1

Zea mays (ZEAMX) [12] = test: Post-emergence herbicidal test; settings: 1000 g/ha unless otherwise stated, evaluated after 13 days
Procedure: as §1

Compound	percentage damage caused to the plant, five-point scale, AMARE [1]	percentage damage caused to the plant, five-point scale, SETFA (Setaria faberi (SETFA) [2])	percentage damage caused to the plant, five-point scale, ECHCG [3]	percentage damage caused to the plant, five-point scale, IPOHE [4]	percentage damage caused to the plant, five-point scale, ABUTH [5]	percentage damage caused to the plant, five-point scale, ZEAMX (Zea mays (ZEAMX) [6])	percentage damage caused to the plant, ABUTH (five-point scale) [7]	percentage damage caused to the plant, AMARE (five-point scale) [8]	percentage damage caused to the plant, ECHCG (five-point scale) [9]	percentage damage caused to the plant, IPOHE (five-point scale) [10]	percentage damage caused to the plant, SETFA (five-point scale) (Setaria faberi (SETFA) [11])	percentage damage caused to the plant, ZEAMX (five-point scale) (Zea mays (ZEAMX) [12])
CCCCCCCCCCCOC(=O)c1nn(-c2ccc(OC(F)(F)F)cc2)c2cccc(S(C)(=O)=O)c2c1=O [Compound P60, undecyl 5-methylsulfonyl-4-oxo-1-[4-(trifluoromethoxy)phenyl]cinnoline-3-carboxylate]	1 (1=10-20%)	4 (4=61-80%)	1 (1=10-20%)	0 (0=0%)	1 (1=10-20%)	1 (1=10-20%)	1 (1=10-20%)	1 (1=10-20%)	1 (1=10-20%)	1 (1=10-20%)	1 (1=10-20%)	1 (1=10-20%)
CS(=O)(=O)c1cccc2c1c(=O)c(C(=O)OC1CCOC1)nn2-c1ccc(OC(F)(F)F)cc1 (stereo not drawn) [Compound P70, tetrahydrofuran-3-yl 5-methylsulfonyl-4-oxo-1-[4-(trifluoromethoxy)phenyl]cinnoline-3-carboxylate]	0 (0=0%)	4 (4=61-80%)	3 (3=41-60%)	0 (0=0%)	0 (0=0%)	1 (1=10-20%)	1 (1=10-20%)	0 (0=0%)	3 (3=41-60%)	0 (0=0%)	4 (4=61-80%)	0 (0=0%)
CCOC(=O)c1nn(-c2ccc(OC(F)(F)F)cc2)c2cc(F)cc(S(C)(=O)=O)c2c1=O [Compound P52, ethyl 7-fluoro-5-methylsulfonyl-4-oxo-1-[4-(trifluoromethoxy)phenyl]cinnoline-3-carboxylate]	1 (1=10-20%)	4 (4=61-80%)	3 (3=41-60%)	0 (0=0%)	1 (1=10-20%)	0 (0=0%)	1 (1=10-20%)	1 (1=10-20%)	2 (2=21-40%)	0 (0=0%)	2 (2=21-40%)	1 (1=10-20%)
COc1ccc2c(c1S(C)(=O)=O)c(=O)c(C(=O)O)nn2-c1ccc(OC(F)(F)F)cc1 [Compound P18, 6-methoxy-5-methylsulfonyl-4-oxo-1-[4-(trifluoromethoxy)phenyl]cinnoline-3-carboxylic acid]	0 (0=0%)	0 (0=0%)	1 (1=10-20%)	0 (0=0%)	0 (0=0%)	1 (1=10-20%)	1 (1=10-20%)	1 (1=10-20%)	1 (1=10-20%)	0 (0=0%)	2 (2=21-40%)	1 (1=10-20%)
CN(C)CCOC(=O)c1nn(-c2ccc(OC(F)(F)F)cc2)c2cccc(S(C)(=O)=O)c2c1=O [Compound P76, 2-(dimethylamino)ethyl 5-methylsulfonyl-4-oxo-1-[4-(trifluoromethoxy)phenyl]cinnoline-3-carboxylate]	0 (0=0%)	4 (4=61-80%)	3 (3=41-60%)	0 (0=0%)	1 (1=10-20%)	0 (0=0%)	2 (2=21-40%)	1 (1=10-20%)	3 (3=41-60%)	1 (1=10-20%)	4 (4=61-80%)	1 (1=10-20%)
CCOC(=O)c1nn(-c2ccc(OC(F)(F)F)cc2)c2cc(C#N)cc(S(C)(=O)=O)c2c1=O [Compound P48, ethyl 7-cyano-5-methylsulfonyl-4-oxo-1-[4-(trifluoromethoxy)phenyl]cinnoline-3-carboxylate]	0 (0=0%)	0 (0=0%)	0 (0=0%)	0 (0=0%)	0 (0=0%)	0 (0=0%)	0 (0=0%)	0 (0=0%)	0 (0=0%)	0 (0=0%)	0 (0=0%)	0 (0=0%)
